Data from patent US20210395698A1, “METHODS AND COMPOSITIONS FOR CULTIVATING PLURIPOTENT CELL SUSPENSIONS” (Life Technologies Corporation, priority 2020, published 2021).
“Also recorded” adds a separate entry of the source.

Tests used:
[1] = tested on: iPSCs; assay: DOE on balance of CHIR99021, Go6983 and BSA: spheroid formation, fold-expansion, Oct4 pluripotency; type: cell-based, human; conditions: for concentration giving maximal fold change (DOE prediction profiler): iPSCs in suspension, preference stated across WA09 ESCs and Gibco Human Episomal iPSCs
Procedure: DOE was conducted to assess the balance of CHIR99021, Go6983 (a broad-spectrum PKC inhibitor), and BSA in achieving optimum fold-expansion, while also providing support of maintenance of pluripotency. […] Variation in spheroid size resulting from the various culture conditions was assess by phase contrast imaging. […] At day 5 of culture spheroids were dissociated using StemPro Accutase and replated into 2D format for 24 hours. After 24 hours of growth, the cells were fixed, permeabilized and stained with DAPI and for Oct4 expression to determine the pluripotency of the dissociated cells. The number of cells expressing Oct4 was compared to the total number of cells expressing DAPI, enabling an estimation of the percentage of pluripotent stem cells obtained from the spheroids.
Various concentrations of Pinacidil, CHIR99021, Go6893, and BSA, with or without anti-clumping agent, was assessed for achieving fold-expansion of iPSCs in suspension culture. […] Overall, CHIR99021 facilitates spheroid formation and a balance of albumin and CHIR99021 maintains appropriate spheroid size.

[2] = tested on: Gibco Human Episomal iPSCs and WA09 ESCs; assay: DOE of small molecules on PSC expansion in suspension culture (viable cell counts Day 5); type: cell-based; conditions: for fold-expansion of PSCs: added to base PSC medium+1× RevitaCell, 24 well, 120 RPM, viable cell counts Day 5
Procedure: Design of Experiment (DOE) was conducted using Gibco Human Episomal induced pluripotent stem cells (iPSCs) and WA09 embryonic stem cells (ESCs) to determine the impact of the small molecules. These PSCs were seeded in base PSC medium+1× RevitaCell™ Supplement and grown in a 24 well non-tissue culture treated plate at 120 RPM on an orbital shaker platform and cell expansion was assessed via viable cell counts on Day 5. […] FIG. 1 depicts results from the assessment of various concentrations of an anti-clumping agent and individual small molecules CHIR99021, PD0325901, SP00125, BIRD796, and Go6983on the expansion of iPSCs and WA09 hESCs.

[3] = tested on: Gibco Human Episomal iPSCs; assay: ROCKi comparison (Chroman I, Pinacidil, RevitaCell vs Y-27632) in PSC medium; type: cell-based; conditions: 1× RevitaCell, 60 μM Pinacidil; for spheroid morphology (size): 50 nM Chroman I, 10 μM Y-27632; for spheroid expansion: Chroman I vs 10 μM Y-27632, CHIR99021 containing PSC medium, 5 days
Procedure: Gibco Human Episomal iPSCs were expanded in non-tissue culture treated 6 well plates on an orbital shaker set to 70 RPM. The cells were passaged from 2D cultures using StemPro Accutase and grown in PSC Medium. Cells were seeded on Day 0 at a concentration of 150,000 cells/mL in a 2 mL volume, with a ROCK inhibitor added to the culture. […] Spheroids were grown over 5 days, with 50% medium replacement performed daily.

[4] = tested on: Gibco Human Episomal iPSCs; assay: ROCK inhibitor pairing with PSC base medium formulation; type: cell-based; conditions: ROCKi used at time of passaging
Procedure: Following 5-day growth with 50% medium exchange daily and constant agitation on an orbital shake platform, fold-change upon expansion was assessed.

[5] = tested on: Gibco Human Episomal iPSCs; assay: Spheroid growth and Oct4 pluripotency by seeding supplement (RevitaCell, Y-27632, Cellartis Supplement 3); type: cell-based
Procedure: PSC fold-expansion and pluripotency maintenance was compared for spheroid cultures seeded with a ROCK inhibitor or with the Cellartis Supplement 3 of the commercially available Cellartis Def-CS 3D medium system and grown in the complete PSC medium provided herein. Gibco Human Episomal iPSCs were expanded in 24-well non tissue culture treated plates at 120 RPM on an orbital shaker platform in the complete PSC medium to determine whether the type of ROCKi or Supplement selected for use affects the overall spheroid growth. […] Overall spheroid growth and expansion was assessed after the cells had grown for 5 days in the 24 well plate (FIG. 15A). The pluripotency of the spheroids was also assessed after the cells had grown for 5 days in the 24 well plate (FIG. 15B). To assess pluripotency, spheroids were dissociated using StemPro Accutase and replated into 2D format for 24 hours. After 24 hours of growth, the cells were fixed, permeabilized and stained with DAPI and for Oct4 expression to determine the pluripotency of the dissociated cells. The number of cells expressing Oct4 was compared to the total number of cells expressing DAPI, enabling an estimation of the percentage of pluripotent stem cells obtained from the spheroids.

[6] = tested on: Gibco Human Episomal iPSCs and WA09 ESCs; assay: Expansion and spheroid morphology with small molecules added continuously vs Day 1 only; type: cell-based
Procedure: Cell morphology was assessed following exposure to formulations containing 3 μM CHIR99021 in continuous culture media vs exposure at day 1 only. iPSCs were grown in a 24 well non-tissue culture treated plate at 120 RPM on an orbital shaker platform and cell morphology was assessed on Day 5. In this experiment, the small molecules were added on Day 1 only or throughout the culture period. […] Cell expansion and morphology were assessed for PSC suspension cultures following incubation with the base PSC media formulation containing CHIR99021 alone or in combination with one or more of the other small molecules and/or anti-clumping agent. PSCs were grown in a 24 well non-tissue culture treated plate at 120 RPM on an orbital shaker platform and cell morphology was examined and cell expansion was assessed via viable cell counts on Day 5. In this experiment, the small molecules were either added on Day 1 only or throughout the culture period. In these figures, the x-axis indicates various formulations tested and the y-axis indicates the fold-change in viable cell counts from day 1 to day 5 of culture. Micrographs of the cell cultures at day 5 under certain conditions are also shown. […] It was surprising that the increase in fold-change could be accomplished through inclusion of CHIR99021 at the time of passage only (e.g., Day 1 only).

[7] = tested on: Gibco Human Episomal iPSCs; assay: Optimal range of CHIR99021 in 100 mL PBS bioreactors: fold-change and viability; type: cell-based
Procedure: The optimal range of CHIR99021 for use in the PSC Medium formulation if included in the formulation for everyday feeds was assessed. Gibco Human Episomal iPSCs were expanded in 100 mL PBS bioreactors in duplicate and cell counts were performed at the end of each passage. […] The sugar source (glucose/galactose) and the concentration of CHIR99021 was varied. The feed schedule was also modified to include every day vs. every-other-day feed schedules. Fold-change upon expansion and viability were assessed for each condition. CHIR99021 concentrations as low as 0.6 μM supported optimal cell expansion on an every-day medium exchange feed schedule (FIG. 11A) and viability on an every-day and every-other-day medium exchange feed schedule (FIG. 11B). […] (FIGS. 11A-11B).

[8] = tested on: H9 (WA09) ESCs; assay: ESC expansion in PSC basal medium with or without CHIR99021 vs mTeSR1; type: cell-based, human; conditions: 10 μM Y-27632 at passaging; Day 5
Procedure: PSC expansion using the PSC media formulations provided herein was compared to expansion in commercially available media. H9 (WA09) ESCs were expanded in PSC basal medium in the absence of CHIR99021, PSC basal medium in the presence of CHIR99021, and in the mTeSR1 media formulation (Stem Cell Technologies). PSCs were passaged using StemPro™ Accutase™ cell dissociation reagent and grown in 6 well non-tissue culture treated plates seeded at 150,000 viable cells/mL in 2 mL of media and agitated at 70 RPM on an orbital shaker platform. […] Cell expansion was assessed via viable cell counts on Day 5. Cultures were fed with 50% medium replacement performed daily.

## COc1ccc2c(c1)c(C1=C(c3c[nH]c4ccccc34)C(=O)NC1=O)cn2CCCN(C)C [Go6983]
[1]
  concentration giving maximal fold change (DOE prediction profiler): exclusion of Go6983 and anti-clump agent is preferred

## O=C1c2ccccc2-c2n[nH]c3cccc1c23 [SP00125]
[2]
  fold-expansion of PSCs: detrimental to overall PSC expansion

## CC(N/C(=N\C#N)Nc1ccncc1)C(C)(C)C (stereo not drawn) [Pinacidil]
[3]
  spheroid morphology (size): morphologically smaller
  spheroid expansion: inferior to 10 μM Y-27632

## COc1ccc2c(c1)C[C@H](C(=O)Nc1ccc(-c3cn[nH]c3)cc1OCCN(C)C)CO2 [Chroman I]
[3]
  spheroid morphology (size): morphologically larger
  spheroid expansion: perform similarly

## O=C(NOC[C@H](O)CO)c1ccc(F)c(F)c1Nc1ccc(I)cc1F [PD0325901]
[2]
  fold-expansion of PSCs: detrimental to overall PSC expansion

## O=C(NCc1ccccc1)c1csc(Nc2ccncn2)n1 [Thiazovivin]
[4]
  spheroid size relative to Pinacidil: Larger spheroids

## C[C@@H](N)[C@H]1CC[C@H](C(=O)Nc2ccncc2)CC1 [Y-27632, (R)-(+)-trans-4-(1-aminoethyl)-N-(4-pyridyl)cyclohexanecarboxamide]
[3]
  spheroid morphology (size): morphologically larger
  spheroid expansion: optimal performance
[5]; added on day 1 in complete PSC medium, 24 well, 120 RPM
  spheroid size and morphology on Day 5: most efficient with larger spheroids
[5]; after 5 days, replated 24 hours
  maintenance of pluripotency (Oct4 vs DAPI): maintain high levels of pluripotent stem cells

## Cc1cnc(-c2cnc(NCCNc3ccc(C#N)cn3)nc2-c2ccc(Cl)cc2Cl)[nH]1 [CHIR99021, 6-[[2-[[4-(2,4-dichlorophenyl)-5-(5-methyl-1H-imidazol-2-yl)-2-pyrimidinyl]amino]ethyl]amino]-3-pyridinecarbonitrile]
[2]; CHIR99021 alone in base PSC medium formulation
  cell nucleation: assisted in cell nucleation
[2]
  fold-expansion of PSCs: significant improvement in fold-expansion
[6]; 3 μM CHIR99021 included on a continual basis
  spheroid morphology Day 5: aberrant differentiation was noted for some conditions
[6]; CHIR99021 at various concentrations only at time of passaging
  fold-expansion: effective at increasing fold-expansion
[6]; CHIR99021 included only at time of passaging (Day 1)
  spheroid morphology Day 5: typical smooth edges and spheroid morphology; also recorded: maintain normal spheroidal morphology
[1]
  concentration giving maximal fold change (DOE prediction profiler): intermediate concentration
[1]; seeded with 10 μM Y-27632, 3 μM CHIR99021 present or absent
  spheroid formation: aids in spheroid formation
[7]; continuously in medium, every-day medium exchange
  CHIR99021 concentration supporting optimal cell expansion: ≥ 0.6 µM
[7]; every-day and every-other-day medium exchange
  CHIR99021 concentration supporting viability: ≥ 0.6 µM
[7]; fed on every-other-day cadence
  CHIR99021 concentration supporting optimal fold-expansion: up to 1.5 μM
[8]
  fold-expansion compared to PSC basal medium without CHIR99021: enhances fold-expansion
  fold-expansion compared to mTeSR1: significantly enhanced fold-expansion
